{"source": "patent US20220213210A1", "about": "“COMBINATION THERAPY OF MULTIPLE SCLEROSIS COMPRISING A CD20 LIGAND” (MABION SA, priority 2017, published 2022)", "tested_on": "MOG-induced experimental allergic encephalomyelitis (EAE) murine model", "experiment": "MOG-induced experimental allergic encephalomyelitis (EAE) murine model, clinical score 0-15", "type": "in vivo, Mouse/C57BL/6J", "conditions": "dimethyl fumarate in therapeutic dose, 49 mg/kg PO bi-daily, Days 0-35 (Group 11)", "excerpt": "FIG. 1: Combination of MabionCD20DP and teriflunomide. MabionCD20DP and teriflunomide have been administered to an experimental allergic encephalomyelitis (EAE) mouse model. The MOG (myelin oligodendrocyte glycoprotein)-induced EAE murine model consists of a sensitization period, induced by the single SC injection of MOG emulsified in CFA (complete Freund's adjuvant) on Day 0, followed by IP supplemental immunostimulation with PT carried out once at the time of EAE induction and once again 48 hours later.\nFIG. 2: Combination of MabionCD20DP and dimethyl fumarate. MabionCD20DP and dimethyl fumarate have been administered to an experimental allergic encephalomyelitis (EAE) mouse model. […]\nThroughout the 36-day study, general clinical examinations were performed and recorded if any unexpected abnormalities are observed.\nBody weight loss can be the first sign of disease initiation, while a sudden marked weight gain tends to accompany remission of EAE symptoms. Therefore, determination of individual body weights of animals was made shortly before EAE induction on Study Day 0 and was monitored on a daily basis throughout the 35-day observation period. […]", "note": "Structures can show the parent of a compound that is named as a salt.", "data": [{"smiles": "COC(=O)/C=C/C(=O)OC", "note": "[dimethyl fumarate]", "values": [{"measurement": "disease parameters (EAE), FIG. 2", "value": "reduction of the disease parameters"}]}]}
